Assay results as given in patent US20250177425A1, “SAIKOSAPONIN C AS COMPOSITION FOR TREATING OR PREVENTING AGE-RELATED VASCULAR DISEASES INCLUDING ARTERIOSCLEROSIS” (AGINGTARGET, INC., priority 2022, published 2025).

Columns and labels:
Format in all cases: cell-based, human
[1] = tested on: THP-1 cells differentiated into macrophages; test: Macrophage foam cell formation by ox-LDL (Oil Red O staining); details: PMA-differentiated THP-1 macrophages; 5 μM and 20 μM pretreatment 2 hours, ox-LDL 100 μg/ml 24 hours
Method: The differentiated macrophages were pretreated with Saikosaponin C at concentrations of 5 μM and 20 μM for 2 hours, and then treated with oxidized LDL (ox-LDL) (100 μg/ml), a foam cell inducer, for 24 hours. Then, the formation of foam cells from macrophages was observed. The foam cell formation was evaluated by microscopic analysis after Oil Red O staining of adsorbed lipid molecules and absorbance analysis using a microplate reader.
The nucleus was stained with hematoxylin dye for 1 minute.

HUVEC [2] = test: SA-β-gal staining, high glucose-induced senescence; details: 5 μM and 20 μM pretreatment 2 hours, 33 mM high glucose 72 hours, dose-dependent
Method: (§1) Similar to Experimental Example 1, a high-fat diet evaluation system at the cellular level was established.
(§2) Specifically, two types of vascular endothelial cells, namely, HUVEC and HPAEC cells, were pretreated with Saikosaponin C at concentrations of 5 μM and 20 μM for 2 hours, and then treated with high glucose at a concentration of 33 mM for 72 hours (for SA-β-gal staining) or 48 hours (for vascular senescence marker protein analysis). Then, the degree of cellular senescence was measured through SA-β-gal staining and measured as the ratio of the total cells to cells stained in blue (SA-β-gal positive). In addition, the expression of vascular senescence marker proteins such as PAI-1, ICAM-1, and VCAM-1 was analyzed.
(§3) Specifically, the senescence of vascular endothelial cells was evaluated by SA-β-gal staining to measure the activity of β-galactosidase, which is an enzyme present in the lysosome, an organelle within the cell (FIG. 3C and FIG. 3D) and this was represented as a graph (FIG. 3A and FIG. 3B). In addition, FIGS. 3E and 3F show the results of Western blotting to determine the expression of vascular senescence marker proteins such as PAI-1, ICAM-1, and VCAM-1 in two types of vascular endothelial cells (HUVEC, HPAEC).

HPAEC [3] = test: SA-β-gal staining, high glucose-induced senescence; details: 5 μM and 20 μM pretreatment 2 hours, 33 mM high glucose 72 hours, dose-dependent
Method: as §1, §2, §3

AoSMC = test: Wound healing and transwell migration assay, PDGF-BB-induced; details: 5 μM and 20 μM pretreatment 2 hours, PDGF-BB 20 ng/ml 24 hours
Method: (§4) Specifically, two types of vascular smooth muscle cells, namely, AoSMC (human aortic smooth muscle cells) and CASMC (human coronary artery smooth muscle cells), were pretreated with Saikosaponin C at concentrations of 5 μM and 20 μM for 2 hours, and then treated with PDGF-BB (20 ng/ml), a platelet-derived growth factor (PDGF), for 24 hours. Then, the proliferation and migration of vascular smooth muscle cells were observed. A wound healing assay was performed to observe the proliferation and migration of vascular smooth muscle cells, and a transwell migration assay was performed to observe the migration ability of vascular smooth muscle cells.
(§5) FIGS. 10A and 10B show the results of evaluating the proliferation and migration of vascular smooth muscle cells (AoSMC, CASMC) through a scratch wound healing assay. FIGS. 10C and 10D show the results of analyzing the cell migration ability of the same cells using a Transwell migration chamber with a pore size of 8.0 μm.

CASMC = test: as above; details: 5 μM and 20 μM pretreatment 2 hours, PDGF-BB 20 ng/ml 24 hours
Method: as §4, §5

HUVEC [4] = test: Monocyte-endothelial cell adhesion caused by TNF-α (Calcein AM-labeled THP-1); details: 5 μM and 20 μM pretreatment 2 hours, TNF-α 20 ng/ml 8 hours, THP-1 monocytes
Method: (§6) Specifically, two types of vascular endothelial cells, namely, HUVEC (human umbilical vein endothelial cells) and HCAEC (human coronary artery endothelial cells), were pretreated with Saikosaponin C at concentrations of 5 μM and 20 μM for 2 hours, and then treated with TNF-α (20 ng/ml) for 8 hours. Then, adhesion of monocyte-vascular endothelial cell and expression of cell adhesion molecules (ICAM-1, VCAM-1) of vascular endothelial cells were observed. […] The adhesion of monocyte-endothelial cells was evaluated by imaging analysis using a confocal microscope and fluorescence analysis using a microplate reader, and expression of adhesion proteins (ICAM-1 and VCAM-1) was evaluated by Western blotting.
(§7) Calcein AM fluorescence was analyzed using a confocal microscope and a microplate reader, and the expression of cell adhesion proteins (ICAM-1, VCAM-1) were evaluated through Western blotting.
(§8) FIGS. 9A and 9B show the results of analysis of monocyte-endothelial cell adhesion in two types of vascular endothelial cells (HUVEC, HCAEC) using a confocal microscope, and FIGS. 9C and 9D show the results of analysis of Calcein AM fluorescence (at an excitation wavelength of 488 nm, and at an emission wavelength of 517 nm) in the same experiment using a microplate reader. […]

HCAEC = test: as above; details: 5 μM and 20 μM pretreatment 2 hours, TNF-α 20 ng/ml 8 hours, THP-1 monocytes
Method: as §6, §7, §8

Sirt1 in HPAEC = test: Sirt1 activity assay kit and Western blotting (expression, phosphorylation); details: 5 μM and 20 μM pretreatment 2 hours, 33 mM high glucose 36 hours, dose-dependent
Method: as §1
(§9) Specifically, two types of vascular endothelial cells, namely, HUVEC and HPAEC cells, were pretreated with Saikosaponin C at concentrations of 5 μM and 20 μM for 2 hours, and then treated with high glucose at a concentration of 33 mM for 36 hours. Then, Sirt1 activity, protein expression and phosphorylation levels were analyzed.
(§10) Sirt1 activity was measured using the Sirt1 Activity Assay Kit (FIG. 7A and FIG. 7B), and Sirt1 protein expression and phosphorylation (Ser27, Ser47) were measured through Western blotting (FIG. 7C and FIG. 7D).

Sirt1 in HUVEC = test: as above; details: 5 μM and 20 μM pretreatment 2 hours, 33 mM high glucose 36 hours, dose-dependent
Method: as §1, §9, §10

HUVEC [5] = test: Trypan blue staining, viable cell count under high glucose; details: 5 μM and 20 μM pretreatment 2 hours, 33 mM high glucose 1 week, dose-dependent
Method: (§11) Similar to Experimental Example 1, a high-fat diet evaluation system at the cell level was established.
(§12) Specifically, two types of vascular endothelial cells, namely, HUVEC and HPAEC cells, were pretreated with Saikosaponin C at concentrations of 5 μM and 20 μM for 2 hours, and then treated with high glucose at a concentration of 33 mM for 1 week. The number of viable cells was then analyzed by Trypan blue staining. The number of viable cells was based on the number of cells in the control group (none) set to “100”.

HPAEC [6] = test: as above; details: 5 μM and 20 μM pretreatment 2 hours, 33 mM high glucose 1 week, dose-dependent
Method: as §11, §12

## CC1O[C@@H](O[C@@H]2C(CO[C@@H]3OC(CO)[C@@H](O)C(O)C3O)O[C@@H](O[C@H]3CC[C@]4(C)[C@H]5C=C[C@]67OC[C@@]8(CCC(C)(C)C[C@H]86)[C@@H](O)C[C@@]7(C)[C@]5(C)CC[C@H]4C3(C)C)C(O)C2O)C(O)C(O)[C@H]1O (some centres unmarked) [Saikosaponin C]
[1]
  foam cell formation by lipid deposition (Oil Red O): suppressed
HUVEC [2]
  high glucose-induced SA-β-gal positive cells: significantly reduced
HPAEC [3]
  high glucose-induced SA-β-gal positive cells: significantly reduced
AoSMC
  PDGF-BB-increased proliferation and migration of vascular smooth muscle cells: not inhibited
CASMC
  PDGF-BB-increased proliferation and migration of vascular smooth muscle cells: not inhibited
HUVEC [4]
  monocyte-endothelial cell adhesion caused by TNF-α: inhibited
HCAEC
  monocyte-endothelial cell adhesion caused by TNF-α: inhibited
Sirt1 in HPAEC
  high glucose-induced decrease in Sirt1 enzyme activity, protein expression, and phosphorylation: significantly alleviated
Sirt1 in HUVEC
  high glucose-induced decrease in Sirt1 enzyme activity, protein expression, and phosphorylation: significantly alleviated
HUVEC [5]
  high glucose-induced cell growth inhibition (number of viable cells, Trypan blue): significantly alleviated
HPAEC [6]
  high glucose-induced cell growth inhibition (number of viable cells, Trypan blue): significantly alleviated
